Experimental data taken from patent US8080517B2, “Cell-permeable peptide inhibitors of the JNK signal transduction pathway” (Xigen SA, priority 2005, dated 2011).
[ ]: non-standard residue; d: D form.

Key:
JNK = details: JBDs; cited from earlier work
βTC-3 cells = experiment: IL-1β induced pancreatic β-cell death, peptide treatment, propidium iodide / Hoechst 33342 staining; type: cell-based; details: for long term inhibition of IL-1β induced cell-death: IL-1β 10 ng/ml every two days, 15 days
Method: We investigated the effects of the inventive L-TAT-IB(s) peptides on the promotion of β-cell apoptosis elicited by IL-1. βTC-3 cell cultures were incubated for 30 minutes with 1 μM of inventive L-TAT-IB1(s) peptides followed by 10 ng/mL of IL-1. A second addition of peptide (1 μM) was performed 24 hours later. Apoptotic cells were counted after two days of incubation with IL-1 β using propidium iodide (red stained cell are dead cells) and Hoechst 33342 (blue stained cell are cells with intact plasma membrane) nuclear staining.
Long term inhibition of IL-1 induced cells death was examined by treating βTC-3 cells as described above, except that incubation of the cells with the peptides and IL-1 β was sustained for 12 days. Additional peptides (1 μM) were added each day and additional IL-1 β (10 ng/mL) was added every 2 days. […] Taken together, these experiments provide evidence that inventive TAT-IB(s) peptides are biologically active molecules able to prevent the effects of JNK signaling on cell fate.
Inhibition of IL-1 β induced pancreatic β-cell death by the inventive D-TAT-IB1(s) peptide was analyzed. βTC-3 cells were incubated as described above for 30 minutes with one single addition of the indicated peptides (1, μM), then IL-1 (10 ng/ml) was added.
Apoptotic cells were then counted after two days of incubation with IL-1 β by use of Propidium Iodide and Hoechst 33342 nuclear staining. A minimum of 1,000 cells were counted for each experiment. Standard Error of the Means (SEM) are indicated, n=5.
Long term inhibition of IL-1P induced cell-death by the D-TAT-IB1 peptide was also analyzed. βTC-3 cells were incubated as above for 30 minutes with one single addition of the indicated peptides (1 μM), then IL-1 β (10 ng/ml) was added, followed by addition of the cytokine every two days. Apoptotic cells were then counted after 15 days of incubation with IL-1 by use of propidium iodide and Hoechst 33342 nuclear staining. […] A minimum of 1.000 cells were counted for each experiment.

JNK3 = target: T1, JNK3 (Homo sapiens, UniProt P53779); experiment: Solid phase kinase assay, JNK3 phosphorylation of Elk1; type: biochemical; details: dose response 0-25 μM, GST-ELK1 (aa 307-428)
T1 construct: host or cells: cell-free: rabbit reticulocyte lysate transcription/translation
Method: (§1) The effects of the peptides on JNKs-mediated phosphorylation of their target transcription factors were investigated in vitro. Recombinant and non activated JNK1, JNK2 and JNK3 were produced using a TRANSCRIPTION AND TRANSLATION rabbit reticulocyte lysate kit (Promega) and used in solid phase kinase assays with c-Jun, ATF2 and Elk1, either alone or fused to glutathione-S-transferase (GST), as substrates. Dose response studies were performed wherein inventive L-TAT or L-TAT-IB1(s) peptides (0-25 μM) were mixed with the recombinant JNK1, JNK2, or JNK3 kinases in reaction buffer (20 mM Tris-acetate, 1 mM EGTA, 10 mM p-nitrophenyl-phosphate (pNPP), 5 mM sodium pyrophosphate, 10 mM p-glycerophosphate, 1 mM dithiothreitol) for 20 minutes. The kinase reactions were then initiated by the addition of 10 mM MgCl2 and 5 pCi […] and 1 μg of either GST-Jun (aa 1-89), GST-AFT2 (aa 1-96) or GST-ELK1 (aa 307-428). GST-fusion proteins were purchased from Stratagene (La Jolla, Calif.).
Ten μL of glutathione-agarose beads were also added to the mixture. Reaction products were then separated by SDS-PAGE on a denaturing 10% polyacrylamide gel. […] The ability of D-TAT, inventive D-TAT-IB1(s) and inventive L-TAT-IB1(s) peptides (0-250 μM dosage study) to inhibit GST-Jun (aa 1-73) phosphorylation by recombinant JNK1, JNK2, and JNKS by were analyzed as described above. […]

activated JNKs = experiment: c-Jun phosphorylation by activated JNKs pulled down with GST-Jun from UV-light irradiated HeLa cells or IL-1β treated βTC-3 cells; type: biochemical; details: peptide 25 μM for 20 minutes
Method: The effects of the L-TAT or inventive L-TAT-IB1(s) peptides on JNKs activated by stressful stimuli were evaluated using GST-Jun to pull down JNKs from UV-light irradiated HeLa cells or IL-1 β treated PTC cells. PTC cells were cultured as described above. HeLa cells were cultured in DMEM medium supplemented with 10% Fetal Calf Serum, 100 μg/mL Streptomycin, 100 units/ml Penicillin and 2 mM Glutamine. One hour prior to being used for cell extract preparation, PTC cells were activated with IL-1 β as described above, whereas HeLa cells were activated by UV-light (20 J/m^2). Cell extracts were prepared from control, UV-light irradiated HeLa cells and IL-1β treated βTC-3 cells by scraping the cell cultures in lysis buffer (20 mM Tris-acetate, 1 mM EGTA, 1% Triton X-100, 10 mM p-nitrophenyl-phosphate, 5 mM sodium pyrophosphate, 10 mMP-glycerophosphate, 1 mM dithiothreitol). Debris was removed by centrifugation for five minutes at 15,000 rpm in an SS-34 Beckman rotor. One-hundred μg extracts were incubated for one hour at room temperature with one μg GST-jun (amino acids 1-89) and 10 μL of glutathione-agarose beads (Sigma). Following four washes with the scraping buffer, the beads were resuspended in the same buffer supplemented with L-TAT or inventive L-TAT-IB1(s) peptides (25 μM) for 20 minutes. […]

[1] = tested on: recombinant JNK1, JNK2, or JNK3 kinases; experiment: Solid phase kinase assay, phosphorylation of c-Jun, ATF2 and Elk1 by recombinant JNKs; type: biochemical
Method: as §1
Ten μL of glutathione-agarose beads were also added to the mixture. Reaction products were then separated by SDS-PAGE on a denaturing 10% polyacrylamide gel. Gels were dried and subsequently exposed to X-ray films (Kodak). […] The ability of D-TAT, inventive D-TAT-IB1(s) and inventive L-TAT-IB1(s) peptides (0-250 μM dosage study) to inhibit GST-Jun (aa 1-73) phosphorylation by recombinant JNK1, JNK2, and JNKS by were analyzed as described above. Overall, D-TAT-IB1(s) peptide decreased JNK-mediated phosphorylation of c-Jun, but at levels approximately 10-20 fold less efficiently than L-TAT-IB1(s).

JNK signaling = experiment: Heterologous GAL4 system (GAL-Jun / 5xGAL-LUC luciferase reporter) in HeLa cells with MKK4/MKK7 activation of JNK; type: cell-based; details: peptide 1 μM
Description: To determine whether the inventive cell-permeable peptides could block JNK signaling in vivo, we used a heterologous GAL4 system. HeLa cells, cultured as described above, were co-transfected with the 5×GAL-LUC reporter vector together with the GAL-Jun expression construct (Stratagene) comprising the activation domain of c-Jun (amino acids 1-89) linked to the GAL4 DNA-binding domain. Activation of JNK was achieved by the co-transfection of vectors expressing the directly upstream kinases MKK4 and MKK7 (see Whitmarsh et al., Science 285: 1578 (1999)). Briefly, 3×10^5 cells were transfected with the plasmids in 3.5-cm dishes using DOTAP (Boehringer Mannheim) following instructions from the manufacturer. For experiments involving GAL-Jun, 20 ng of the plasmid was transfected with 1 μg of the reporter plasmid pFR-Luc (Stratagene) and 0.5 μg of either MKK4 or MKK7 expressing plasmids. Three hours following transfection, cell media were changed and TAT and TAT-IB1(s) peptides (1 μM) were added. The luciferase activities were measured 16 hours later using the “Dual Reporter System” from Promega after normalization to protein content. […] Because HeLa cells express JNK1 and JNK2 isoforms but not JNK3, we transfected cells with JNK3.

AP-1 DNA binding complex = experiment: Gel retardation assay with AP-1 probe, nuclear extracts of TNF-α treated HeLa cells; type: cell-based; details: peptide added 30 minutes before TNF-α 5 ng/ml
WiDr cells = experiment: Irradiation (30 Gy) induced apoptosis; type: cell-based, human; details: 1 μM added 30 minutes before 30 Gy, analyzed 48 hours later
Method: JNK is also activated by ionizing radiation. To determine whether inventive TAT-IB(s) peptides would provide protection against radiation-induced JNK damage, “WiDr” cells were irradiated (30 Gy) in presence or absence of D-TAT, inventive L-TAT-IB1(s) or inventive D-TAT-IB1(s) peptides (1 μM added 30 minutes before irradiation). Control cells (CTRL) were not irradiated. Cells were analyzed 48 hours later by means of PI and Hoechst 3342 staining, as described above. N=3, SEM are indicated.

βTC-3 cell cultures = type: cell-based
Method: The ability of the L- and D-enantiomeric forms of TAT and inventive TAT-IB1(s) peptides (“TAT-IB peptides”) to enter cells was evaluated. L-TAT, D-TAT, inventive L-TAT-IB1(s), and inventive D-TAT-IB1(s) peptides [SEQ ID NOs: 5, 6, 9 and 12, respectively] were labeled by N-terminal addition of a glycine residue conjugated to fluorescein. Labeled peptides (1 μM) were added to βTC-3 cell cultures, which were maintained as described in Example 3. At predetermined times cells were washed with PBS and fixed for five minutes in ice-cold methanol-acetone (1:1) before being examined under a fluorescence microscope. Fluorescein-labeled BSA (1 μM, 12 moles/mole BSA) was used as a control.
Little to no signal was present at 48 hours.
Fluorescent signals from these all-D retro-inverso peptides were still very strong 1 week later, and the signal was only slightly diminished at 2 weeks post treatment.

[2] = Focal cerebral ischaemia, transient MCAO model, infarct volume; type: in vivo, male ICR-CD1 mice
Description: Evaluation of neuroprotection by inventive chimeric peptides after iv administration against focal cerebral ischaemia, in a transient MCAO model (see FIG. 4).
Transient ischemia in adult mice. Using male ICR-CD1 mice (6 weeks old; 18-37 g; Harlan), we provoked ischemia by introducing a filament from the common carotid artery into the internal carotid and advancing it into the arterial circle, thereby occluding the middle cerebral artery. We measured regional cerebral blood flow by laser Doppler flowmetry, with a probe fixed on the skull throughout the ischemia until 10 min after reperfusion. Rectal temperature was measured and maintained at 37° C. The mice were killed 48 h after reperfusion. Serial cryostat sections 20 μm thick were traced using a computer-microscope system equipped with the Neurolucida program (MicroBrightField) and the volumes of the ischemic area and of the whole brain were calculated (blinded) with the Neuroexplorer program. XG−102 0.3=0.3 mg/kg,XG−102 1=1 mg/kg, XG−102 5=5 mg/kg
The infarct volume sizes (mm^3) after bolus iv administration of placebo and XG-102 0.3, […] 6 hours after reperfusion (30 minutes clamp) in an adult mice model were as follows.

T1 sequence (P53779 whole entry, species assumed, the tested form may be a part): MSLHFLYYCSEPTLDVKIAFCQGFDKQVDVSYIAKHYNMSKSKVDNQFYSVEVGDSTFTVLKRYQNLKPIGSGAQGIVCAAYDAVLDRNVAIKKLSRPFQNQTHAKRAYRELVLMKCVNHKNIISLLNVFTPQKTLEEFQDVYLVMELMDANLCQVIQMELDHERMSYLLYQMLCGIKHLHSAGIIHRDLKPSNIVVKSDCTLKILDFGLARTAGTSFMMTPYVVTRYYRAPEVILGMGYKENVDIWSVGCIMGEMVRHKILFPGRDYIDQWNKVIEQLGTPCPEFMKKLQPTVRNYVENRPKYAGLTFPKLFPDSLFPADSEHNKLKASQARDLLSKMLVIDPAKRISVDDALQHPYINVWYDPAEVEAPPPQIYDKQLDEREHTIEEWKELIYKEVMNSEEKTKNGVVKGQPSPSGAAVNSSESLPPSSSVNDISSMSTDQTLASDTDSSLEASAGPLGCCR

## IPSPSVEEPHKHRPTTLRLTTLGAQDS (IPSPSVEEPHKHRPTTLRLTTLGAQDS) [1B2-long]
JNK
  efficiency in binding JNK relative to c-Jun or ATF2: approximately 100 fold

## NH2-GRKKRRQRRRPPRPKRPTTLNLFPQVPRSQD-COOH (H-GRKKRRQRRRPPRPKRPTTLNLFPQVPRSQD-OH) [TAT-IB(s)]
βTC-3 cells; 1 μM, second addition at 24 hours, IL-1 10 ng/mL, two days
  inhibition of IL-1 induced apoptosis: inhibited IL-1-induced apoptosis of βTC-3 cells
βTC-3 cells; 12 days, peptide 1 μM added each day, IL-1β 10 ng/mL every 2 days
  long term inhibition of IL-1 induced cell death: confers strong protection against apoptosis
βTC-3 cells; one single addition 1 μM, listed as TAT-IB 1
  long term inhibition of IL-1β induced cell-death: does not confer long-term protection
JNK3
  inhibition of JNK3 phosphorylation of Elk1: absence of TAT-IB(s) inhibition of JNKS phosphorylation of Elk1
Activated JNKs
  prevention of c-Jun phosphorylation by activated JNKs: efficiently prevented phosphorylation of c-Jun by activated JNKs
[1]
  inhibition of JNK family phosphorylation of target transcription factors, overall: superior effects in inhibiting JNK family phosphorylation of their target transcription factors
[1]; dose response 0-25 μM, GST-Jun (aa 1-89), GST-AFT2 (aa 1-96), GST-ELK1 (aa 307-428)
  peptide dose giving nearly complete inhibition of c-Jun, ATF2 and Elk1 phosphorylation by JNKs: ≥ 2.5 µM
JNK signaling; HeLa cells transfected with JNK3
  activation of c-Jun (luciferase) in cells transfected with JNK3: inhibited JNK2 mediated activation of c-Jun
JNK signaling; luciferase 16 hours later
  activation of c-Jun (luciferase) following MKK4 and MKK7 mediated activation of JNK: blocked activation of c-Jun following MKK4 and MKK7 mediated activation of JNK

## NH2-GRKKRRQRRRPPRPKRPTTLNLFPQVPRSQD-COOH (H-GRKKRRQRRRPPRPKRPTTLNLFPQVPRSQD-OH) [L-TAT-IB1(s)]
βTC-3 cells; one single addition 1 μM
  long term inhibition of IL-1β induced cell-death: but not inventive L-TAT-IB1 (s), was able to confer long term (15 day) protection
AP-1 DNA binding complex
  formation of the AP-1 DNA binding complex: decrease the formation of the AP-1 DNA binding complex in the presence of TNF-α
WiDr cells
  prevention of irradiation induced apoptosis: able to prevent irradiation induced apoptosis

## NH2-RRRQRRKKRG-COOH (D-amino acids) [D-TAT, reference compound]
βTC-3 cell cultures
  stability inside the cells: extremely stable inside the cells

## PGTGCGDTYRPKRPTTLNLFPQVPRSQDT (PGTGCGDTYRPKRPTTLNLFPQVPRSQDT) [IB1-long]
JNK
  efficiency in binding JNK relative to c-Jun or ATF2: approximately 100 fold

## NH2-DQSRPVQPFLNLTTPRKPRPPRRRQRRKKRG-COOH (H-[dD][dQ][dS][dR][dP][dV][dQ][dP][dF][dL][dN][dL][dT][dT][dP][dR][dK][dP][dR][dP][dP][dR][dR][dR][dQ][dR][dR][dK][dK][dR]G-OH) [XG102]
[2]; 0.3 mg/kg bolus iv 6 hours after reperfusion (30 minutes clamp), n = 5, 48 h after reperfusion
  infarct volume sizes, moyenne: 16 mm^3
[2]; 1 mg/kg bolus iv 6 hours after reperfusion (30 minutes clamp), n = 1, 48 h after reperfusion
  infarct volume sizes, moyenne: 16 mm^3
[2]; XG102 3 group, bolus iv 6 hours after reperfusion (30 minutes clamp), n = 5, 48 h after reperfusion
  infarct volume sizes, moyenne: 15 mm^3

## TDQSRPVQPFLNLTTPRKPRYTDPPRRRQRRKKRG (TDQSRPVQPFLNLTTPRKPRYTDPPRRRQRRKKRG) [D-TAT-IB1, reference compound]
βTC-3 cells; one single addition 1 μM, IL-1 10 ng/ml, two days, n=5
  inhibition of IL-1β induced apoptosis: decreased IL-1 induced apoptosis to a similar extent as L-TAT-IB peptides
